Assays:
[1] = target: T1, Glucose-dependent insulinotropic receptor (Homo sapiens, UniProt Q8TDV5); assay: Agonist activity at human GPR119 expressed in CHOK1 cells co-expressing CRE-luciferase incubated for 4 hrs by luciferase reporter gene assay; assay type: functional, cell-based
T1 sequence (Q8TDV5 whole entry): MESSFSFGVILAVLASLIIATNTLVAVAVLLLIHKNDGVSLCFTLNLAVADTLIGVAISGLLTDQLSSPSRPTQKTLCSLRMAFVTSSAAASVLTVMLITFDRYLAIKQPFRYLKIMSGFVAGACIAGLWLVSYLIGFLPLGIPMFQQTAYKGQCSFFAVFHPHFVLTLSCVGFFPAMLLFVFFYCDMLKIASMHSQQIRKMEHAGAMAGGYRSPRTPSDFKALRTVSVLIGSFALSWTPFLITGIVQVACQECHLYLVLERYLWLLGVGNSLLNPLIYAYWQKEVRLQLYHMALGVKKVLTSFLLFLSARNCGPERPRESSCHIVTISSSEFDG

[2] = target: T2, Glucose-dependent insulinotropic receptor (Homo sapiens) (UniProt Q8TDV5); assay: Agonist activity at human GPR119 expressed in CHOK1 cells co-expressing CRE-luciferase incubated for 4 hrs by luciferase reporter gene assay relative to 100 nM AR231453; assay type: functional, cell-based
T2 sequence (whole entry): T1 sequence (Q8TDV5 whole entry)

[3] = Clearance in human liver microsomes; assay type: ADME, microsome; details: read-out: CLH
[4] = Clearance in mouse liver microsomes; assay type: ADME, microsome; details: read-out: CLH
[5] = target: T1, Glucose-dependent insulinotropic receptor; assay: Agonist activity at human GPR119 expressed in HEK293 cells by luciferase reporter gene assay; assay type: cell-based
Mus musculus [6] = assay: Reduction in blood glucose AUC in C57BL/6N mouse at 30 mg/kg dosed 25 mins before glucose challenge and measured over 120 mins post glucose […] by oral glucose tolerance test; assay type: functional; set-up: scale not given: the % may be the effect or the level left
[7] = Drug metabolism in human liver microsomes assessed as CYP450-mediated metabolism of ethyl group; assay type: ADME
[8] = Drug metabolism in mouse liver microsomes assessed as CYP450-mediated metabolism of ethyl group; assay type: ADME
Mus musculus [9] = assay: Reduction in blood glucose AUC in C57BL/6N mouse at 10 mg/kg dosed 25 mins before glucose challenge and measured over 120 mins post glucose […] by oral glucose tolerance test; assay type: functional; set-up: scale not given: the % may be the effect or the level left
[10] = Plasma clearance in mouse at 0.5 mg/kg, iv; assay type: ADME, organism-based
[11] = Volume of distribution at steady state in mouse at 0.5 mg/kg, iv; assay type: ADME, organism-based; details: in vivo, read-out: Vdss
[12] = Half life in mouse at 0.5 mg/kg, iv; assay type: ADME, organism-based; details: in vivo
[13] = Cmax in mouse at 10 mg/kg, po; assay type: ADME, organism-based; set-up: dose 10 mg/kg, route oral; details: in vivo
[14] = AUC in mouse at 10 mg/kg, po; assay type: ADME, organism-based; details: in vivo
[15] = Oral bioavailability in mouse at 10 mg/kg; assay type: ADME, organism-based; details: in vivo
CHO-K1 = assay: Cytotoxicity in CHOK1 cells by CCK8 assay; assay type: cell-based; details: Cricetulus griseus

SMILES | EC50 ([1]; read-out: EC50) | Emax [2] | microsomal CLint [3] | microsomal CLint [4] | other results
CC(C)(C)OC(=O)N1CCC(n2nnc3c(Nc4ccc(S(C)(=O)=O)cc4F)ncnc32)CC1 |  |  |  |  | EC50 [5]: 19 nM
CC(C)(C)OC(=O)N1CCC(c2coc3c(N4CC(C)(C)c5cc(S(C)(=O)=O)ccc54)ncnc23)CC1 |  |  |  |  | EC50 [1]: Not Active
COc1cnc(N2CCC(c3coc4c(N5CCc6cc(S(C)(=O)=O)ccc65)ncnc34)CC2)nc1 | 310 nM | 186% | 255 µL/min/mg | 189 µL/min/mg | 
CS(=O)(=O)c1ccc2c(c1)CCN2c1ncnc2c(C3CCN(c4ncccn4)CC3)coc12 | 512 nM | 196% |  |  | 
CC(C)(C)OC(=O)N1CCC(c2coc3c(N4c5ccc(S(C)(=O)=O)cc5CC4(C)C)ncnc23)CC1 |  |  |  |  | EC50 [1]: Not Active
CC(C)(C)OC(=O)N1CCC(c2coc3c(N4CCc5cc(S(C)(=O)=O)ccc54)ncnc23)CC1 | 53 nM | 123% | 550 µL/min/mg | 508 µL/min/mg | 
CS(=O)(=O)c1ccc2c(c1)CCN2c1ncnc2c(C3CCN(c4ncc(O)cn4)CC3)coc12 | 391 nM | 145% | 132 µL/min/mg | 107 µL/min/mg | 
CCCc1cnc(N2CCC(n3nnc4c(Nc5ccc(S(C)(=O)=O)cc5F)ncnc43)CC2)nc1 |  |  |  |  | EC50 [5]: 82 nM
CCc1cnc(N2CCC(c3coc4c(N5CCc6cc(S(C)(=O)=O)ccc65)ncnc34)CC2)nc1 | 41 nM | 154% | 412 µL/min/mg | 187 µL/min/mg | Drug metabolism [7]: Metabolite_Detected; Drug metabolism [8]: Metabolite_Detected
CC(=O)c1cnc(N2CCC(c3coc4c(N5CCc6cc(S(C)(=O)=O)ccc65)ncnc34)CC2)nc1 | 78 nM | 12% | 74 µL/min/mg | 154 µL/min/mg | 
CN(c1ccc(S(C)(=O)=O)cc1F)c1ncnc2c(C3CCN(C(=O)OC(C)(C)C)CC3)coc12 | > 1000 nM | 6% |  |  | 
CC(C)(C)OC(=O)N1CCC(c2c[nH]c3c(Nc4ccc(S(C)(=O)=O)cc4F)ncnc23)CC1 | > 1000 nM | 9% |  |  | 
CC(C)(C)OC(=O)N1CCC(c2csc3c(Nc4ccc(S(C)(=O)=O)cc4F)ncnc23)CC1 | 79 nM | 82% |  |  | 
CC(C)(C)OC(=O)N1CCC(c2coc3c(N4CCCc5cc(S(C)(=O)=O)ccc54)ncnc23)CC1 | 793 nM | 1% |  |  | 
Cc1cnc(N2CCC(c3coc4c(N5CCc6cc(S(C)(=O)=O)ccc65)ncnc34)CC2)nc1 | 252 nM | 159% | 349 µL/min/mg | 145 µL/min/mg | 
CS(=O)(=O)c1ccc2c(c1)CCN2c1ncnc2c(C3CCN(c4ncc(Cl)cn4)CC3)coc12 | 42 nM | 117% | 113 µL/min/mg | 108 µL/min/mg | Activity (Mus musculus [9]): 33%; clearance [10]: 6.5 mL/min/kg; Vd [11]: 2.3 L/kg; half-life [12]: 5.1 h; Cmax [13]: 2020 ng/mL; AUC [14]: 9390 ng·h/mL; bioavailability [15]: 37%; IC50 (CHO-K1): > 10000 nM

Further lines, with some results ahead:

EC50 ([1]; read-out: EC50) | Emax [2] | microsomal CLint [3] | microsomal CLint [4] | SMILES | other results
586 nM | 33% | 102 µL/min/mg | 66 µL/min/mg | CC(O)c1cnc(N2CCC(c3coc4c(N5CCc6cc(S(C)(=O)=O)ccc65)ncnc34)CC2)nc1 (configuration not stated) | 
> 1000 nM | 3% |  |  | Cn1cc(C2CCN(C(=O)OC(C)(C)C)CC2)c2ncnc(Nc3ccc(S(C)(=O)=O)cc3F)c21 | 
129 nM | 123% |  |  | CC(C)(C)OC(=O)N1CCC(c2coc3c(Nc4ccc(S(C)(=O)=O)cc4F)ncnc23)CC1 | Activity (Mus musculus [6]): 13%
201 nM | 229% | 257 µL/min/mg | 154 µL/min/mg | CS(=O)(=O)c1ccc2c(c1)CCN2c1ncnc2c(C3CCN(c4ncc(F)cn4)CC3)coc12 | 
353 nM | 137% |  |  | CC(C)(C)OC(=O)N1CCC(c2noc3c(Nc4ccc(S(C)(=O)=O)cc4F)ncnc23)CC1 | 

Source: ChEMBL document CHEMBL4052704, “Optimization of a novel series of potent and orally bioavailable GPR119 agonists” (Bioorg Med Chem Lett, 2017)
